Data published in publication PMC10831936 (iScience, 2024).

How the values were obtained:
ERBB4 = ERBB4 (Homo sapiens, UniProt Q15303); test: Split TEV firefly luciferase assay, ERBB4; assay type: cell-based; conditions: PC12 cells; constant EGF-like domain 10 ng/mL; luciferase readout
Experimental: 50,000 PC12 cells were seeded per 96-well onto poly-L-lysin (PLL)-coated plates and transfected the following day (day in vitro 1, DIV1) with assay plasmids using Lipofectamine 3000 (Thermo Fisher Scientific). For split TEV assays, plasmids (pcDNA3 or pTag4C backbone) encoding receptor-NTEV-tcs-GV, GRB2-SH2-CTEV (for ERBB receptors) or ARBB2-1-383-CTEV (for HTR2A) (all 10 ng/well), and the p10xUAS-luc2 reporter plasmid (10 ng/well) were used. For pathway assays, the receptor plasmids (15 ng/well) and pathway reporter plasmids (15 ng/well) pEGR1p-luc2 for monitoring MAPK signaling, pCRE-CMVmin-luc2 for monitoring cAMP/Ca^2+ signaling, or p6xNFAT-CMVmin-luc2 for Ca^2+ signaling were used. Transient transfections were conducted according to the manufacturer’s instructions. On DIV2, cells were starved in medium containing 1% FCS for 16 h. […] In the case of antagonist assays, compounds were added at increasing doses together with the stimulus. Cells were lysed in 1x passive lysis buffer (Promega) and subjected to a firefly luciferase assay using a self-made substrate for firefly luciferase.[100] Luciferase activity was analyzed in a Mithras LB 940 Multimode Microplate Reader (Berthold Technologies). All assays were run in 96-well plates using six replicates per condition.

cAMP = test: GloSensor cAMP assay in PC12 cells; assay type: cell-based, Rattus norvegicus
phospho-ERK1/2 = test: Western blot of p-ERK1/2 in A549 cells (EGF stimulated); assay type: cell-based; conditions: Homo sapiens, read-out: p-ERK1/2 IC50 (EGFR), Western blot quantification
Experimental: Phosphorylation levels of EGFR were assessed[37] in A549 cells, while phosphorylation levels of ERBB4 were assessed in T-47D cells. Before stimulation experiments were performed, both cell types were starved overnight in 1% FCS and compounds were incubated for 1 h. […] For lysis, cells were washed 1x with PBS and lysed in a Triton X- lysis buffer (1% Triton X-100, 50 mM Tris pH7.5, 150 mM NaCl, 1 mM EGTA) containing the Complete protease inhibitor cocktail (Roche) and PhosSTOP phosphatase inhibitor (Roche). Briefly, cells were lysed and kept on ice for 10 min, sonicated 3x for 10 s at 4°C, and denatured for 10 min at 70°C. The Mini-PROTEAN Tetra Electrophoresis System and Trans-Blot Turbo Botting System (both Bio-Rad) were used for running and blotting protein gels. […] Total EGFR and ERBB4 protein levels were determined using an anti-EGFR antibody (RRID: AB_10920395) (clone A-10, dilution 1:1000, sc-373746, Santa Cruz Biotechnology) and an anti-ERBB4 antibody (RRID: AB_731579) (clone E200, dilution 1:1000, ab32375, Abcam). […] Tubulin levels were determined using an anti-Tubulin antibody (RRID: AB_477579) (dilution 1:2000, No. T 5168, Sigma-Aldrich). For quantification, phosphorylation levels of p-EGFR relative to EGFR as well as p-ERBB4 relative to ERBB4 were calculated using the Lukemiller protocol (http://lukemiller.org/index.php/2010/11/analyzing-gels-and-western-blots-with-image-j/). […]

EGFR = test system: EGFR; design: method as in Fry et al., 1994; conditions: phospho-WB in A-431 cells; ref Fry et al., 1994; read-out: IC50_Literature, EGFR; cited from earlier work
[1] = test system: SkBr3, BT474 and HER2-overexpressing ovarian cancer cells SkOV3; design: method as in Moasser et al., 2001; conditions: cell growth assay in SkBr3, BT474 and SkOV3 cells; ref Moasser et al., 2001; read-out: IC50_Literature, ERBB2; cited from earlier work
ERBB3 = test system: ERBB3; design: method as in Boateng et al., 2021; conditions: ELISA in MCF-7 cells; ref Boateng et al., 2021; read-out: IC50_Literature, ERBB3; cited from earlier work
EGFR CRE = test: ERBBprofiler barcoded CRE pathway sensor, EGFR co-transfected; conditions: PC12 cells; constant EGF 30 ng/mL, EGFld 10 ng/mL, serotonin 1 μM; 6 h; barcode readout; relative IC50
ERBB4 CRE = test: ERBBprofiler barcoded CRE pathway sensor, ERBB4 co-transfected; conditions: PC12 cells; constant EGF 30 ng/mL, EGFld 10 ng/mL, serotonin 1 μM; 6 h; barcode readout; relative IC50
EGFR EGR1p = test: ERBBprofiler barcoded EGR1p pathway sensor, EGFR co-transfected; conditions: Rattus norvegicus, PC-12, 6 h, read-out: EGFR EGR1p IC50
EGFR NFAT = test: ERBBprofiler barcoded NFAT pathway sensor, EGFR co-transfected; assay type: cell-based, Rattus norvegicus; conditions: PC12 cells; constant EGF 30 ng/mL, EGFld 10 ng/mL, serotonin 1 μM; 6 h; barcode readout; relative IC50
ERBB4 NFAT = test: ERBBprofiler barcoded NFAT pathway sensor, ERBB4 co-transfected; assay type: cell-based, Rattus norvegicus; conditions: PC12 cells; constant EGF 30 ng/mL, EGFld 10 ng/mL, serotonin 1 μM; 6 h; barcode readout; relative IC50
CRE sensor = CRE sensor only luciferase assay in PC12 cells; assay type: cell-based, Rattus norvegicus
A-431 cells = test system: A-431 cells; design: method as in Li et al., 2017; conditions: Proliferation assay, SRB method, ref Li et al., 2017, read-out: IC50_Literature, EGFR; cited from earlier work
[2] = test system: SK–BR–3 cells and NCI-N87 cells; design: method as in Li et al., 2017; conditions: Proliferation assay, SRB method, ref Li et al., 2017, read-out: IC50_Literature, ERBB2; cited from earlier work

ERBB4, sequence (Q15303 26-1308): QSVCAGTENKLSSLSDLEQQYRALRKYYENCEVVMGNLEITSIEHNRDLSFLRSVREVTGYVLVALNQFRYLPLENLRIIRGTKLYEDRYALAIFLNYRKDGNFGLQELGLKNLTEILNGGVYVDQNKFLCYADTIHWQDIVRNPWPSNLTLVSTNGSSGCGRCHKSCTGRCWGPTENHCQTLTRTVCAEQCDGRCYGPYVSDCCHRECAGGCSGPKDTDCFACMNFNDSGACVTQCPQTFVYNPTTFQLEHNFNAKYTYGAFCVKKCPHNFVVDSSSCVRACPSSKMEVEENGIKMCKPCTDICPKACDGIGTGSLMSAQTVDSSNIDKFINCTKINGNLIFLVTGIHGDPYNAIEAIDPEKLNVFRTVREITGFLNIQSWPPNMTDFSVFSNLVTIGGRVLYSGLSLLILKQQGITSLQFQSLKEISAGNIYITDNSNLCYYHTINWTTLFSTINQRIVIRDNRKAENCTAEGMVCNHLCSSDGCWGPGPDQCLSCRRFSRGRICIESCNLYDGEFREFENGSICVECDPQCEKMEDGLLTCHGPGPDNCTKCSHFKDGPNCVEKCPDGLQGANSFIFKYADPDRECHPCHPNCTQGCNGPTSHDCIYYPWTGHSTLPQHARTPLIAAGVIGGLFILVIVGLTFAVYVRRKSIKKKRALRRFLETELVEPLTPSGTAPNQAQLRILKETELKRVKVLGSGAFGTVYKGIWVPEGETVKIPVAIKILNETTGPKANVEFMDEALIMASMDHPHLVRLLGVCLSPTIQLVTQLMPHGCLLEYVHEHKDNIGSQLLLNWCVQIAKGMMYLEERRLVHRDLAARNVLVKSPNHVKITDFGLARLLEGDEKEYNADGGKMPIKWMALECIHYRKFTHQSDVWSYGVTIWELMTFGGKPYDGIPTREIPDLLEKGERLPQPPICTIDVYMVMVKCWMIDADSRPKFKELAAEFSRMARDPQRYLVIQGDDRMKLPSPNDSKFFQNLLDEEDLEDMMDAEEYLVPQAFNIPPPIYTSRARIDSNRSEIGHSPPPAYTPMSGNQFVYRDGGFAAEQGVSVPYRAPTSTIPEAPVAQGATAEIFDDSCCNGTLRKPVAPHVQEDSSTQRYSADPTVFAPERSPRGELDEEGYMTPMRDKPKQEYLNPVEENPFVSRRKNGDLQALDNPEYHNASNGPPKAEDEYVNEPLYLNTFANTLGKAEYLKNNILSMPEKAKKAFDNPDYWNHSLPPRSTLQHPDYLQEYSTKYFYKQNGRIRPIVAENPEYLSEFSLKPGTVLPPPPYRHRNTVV

Row | Structure (SMILES) | IC50 (ERBB4) | effect on cAMP levels (GloSensor) (cAMP) | IC50 (phospho-ERK1/2) | IC50 (EGFR) | IC50 [1] | IC50 (ERBB3) | EGFR CRE IC50 (EGFR CRE) | ERBB4 CRE IC50 (ERBB4 CRE) | IC50 (EGFR EGR1p) | EGFR NFAT IC50 (EGFR NFAT) | ERBB4 NFAT IC50 (ERBB4 NFAT) | effect on CRE sensor activity (luciferase), in words (CRE sensor; PC12 cells, CRE sensor only, stimulation mix) | EC50 (CRE sensor; Rattus norvegicus, PC-12) | EC50 (cAMP; Rattus norvegicus, PC-12, 0.25 h, constant stimulation mix, 15 min, cAMP increase) | compound concentration resulting in elevated cAMP (GloSensor) (cAMP; stimulation mix) | IC50 (A-431 cells) | IC50 [2]
1 | COc1cc2ncnc(Nc3cccc(Cl)c3)c2cc1OC [AG1478, AG-1478 (Tyrphostin AG-1478)] | 258 nM | did not cause any increase | 91 nM | […] | 300 to 2000 nM | 857 nM | no effect (EGFR, ERBB2/3, ERBB4); 0.031 µM (HTR2A, small effect) | no effect (EGFR, ERBB2/3, ERBB4); 0.031 µM (HTR2A, small effect) | 23 nM | – | – | – | – | – | – | – | –
2 | CCOc1cc2ncc(C#N)c(Nc3ccc(OCc4ccccn4)c(Cl)c3)c2cc1NC(=O)/C=C/[C@H]1CCCN1C [Pyrotinib] | 324 nM | – | 6540 nM | – | – | – | – | – | 261 nM | no effect (EGFR, ERBB2/3, ERBB4) - 0.576 µM (HTR2A, small effect) | no effect (EGFR, ERBB2/3, ERBB4) - 0.576 µM (HTR2A, small effect) | CRE sensor activation at high compound concentrations | 1380 nM | 1920 nM | ≥ 3 µM | 45 nM | 39 to 42 nM
